Columns and labels:
C. elegans [1] = experiment: Peroxide treatment of mutant, RNAi or unstressed worms: MMP, OCR and growth read together; type: in vivo
From the text: C. elegans wild-type (N2) strain was received from Caenorhabditis Genetics Center, USA. Mutant strains were generated using the following primers. Idh-1: […] and […]; C31C9.2 (ghpr-1): […] and […]and F41E6.5 (gox-1): […]and[…]. […] Progeny of the rescued strains were genotyped for homozygous deletion with PCR primers for three generations. All mutants were outcrossed at least twice with the wild type to eliminate background mutations. Double and triple mutants were obtained by crossing single or double mutants and selecting the homozygous progeny by PCR.
For RNAi experiments in liquid, E. coli HT115 containing L4440 empty vector or the indicated cDNA fragment in L4440 was inoculated in 100 ml of LB containing 100 μg/ml ampicillin and incubated overnight at 37° C. in a shaking incubator at 250 rpm. To induce the production of dsRNA, a final concentration 0.8 mM IPTG was added to the collected bacterial pellet diluted 100-fold and incubated overnight at 25° C. in a shaking incubator at 250 rpm. Bacteria were then pelleted by centrifugation at 4000 rpm for 5 mins and resuspended in 200 μl S-medium containing 100 μg/ml ampicillin and 0.8 mM IPTG.
A population of synchronized L1 larvae was added to 30-ml glass tubes containing 2.5 ml of S-complete medium (liquid culture)^2 and NA22 or induced RNAi bacteria at an OD600 of 1.9. […] Worms were incubated at 15° C. and 150 rpm in a shaking incubator for 2-6 days, refreshing the medium every 2 days.
(§1) Mitochondrial staining was performed as described previously^3,4. Briefly, L1 worms were grown on plate or in liquid culture for 2-3 days at 15° C. Subsequently, they were pelleted in a 15-ml tube, rinsed twice with H2O and resuspended in 100 μl of M9. 5 μM MitoTracker Red CMXRos (Thermo Fisher Scientific, Germany) in DMSO was added to the worm suspension and incubated in this solution for 1.5 hr at room temperature in the dark. Next, the excess dye was washed off with M9 buffer and worms were incubated in 100 μl M9 for 30 min to eliminate the excess dye in the gut. Finally, worms were paralyzed with 0.5 mM Levamizol (Sigma-Aldrich), placed on slides covered with a thin layer of 2% agarose on top of which the coverslip (22×22 mm, Menzel-Glaser no. 1) was fixed using nail polish. We used a Zeiss LSM 700 inverted laser scanning confocal microscope and a Zeiss LCI Plan-Neofluar 63×/1.3 ImmCorr DIC M27 objective to image mitochondria (Zeiss, Germany). MitoTracker Red CMXRos was excited at 555 nm and the emission above 560 nm was acquired by the second PMT. Optical sections at 0.1×0.1×0.5 μm^3 x-y-z resolution were collected in a 4D hyperstack. Final images were adjusted for intensity and merged in Fiji. No non-linear adjustments were made.
Synchronized L1 worms were incubated at 15° C. on plates or in liquid culture and exposed to different conditions as indicated. Single worms were selected randomly from the plates or aliquots were taken from the liquid cultures and added to NGM plates for immediate visualization. 25 worms per treatment were measured at 24-48 hr intervals and all growth curves were done four times. Images were analyzed using FIJI (Image J) software, with length measurements derived by the sum-total of a number of segmented lines of known length, down the center of the worm as described previously^5.
(§2) Oxygen consumption of worms was measured with a Seahorse XFe96 system (Seahorse Bioscience, North Billerica, MA), as previously described^4. L3 larvae of the different strains were grown on plates or in liquid culture and supplemented for 2-4 days as described for each experiment. After removing bacteria and debris, approximately 100 worms were pipetted into each well of a 96-well Seahorse XF^e assay plate and OCR was measured until it stabilized. Then, 3 subsequent measurements were made at 6.5-min intervals. Finally, the exact number of worms in each well was counted and used for normalization.

C. elegans [2] = type: in vivo; details: 100 mM H2O2 plus supplement (10 mM GA, 100 μM glycine or 500 μM L-serine)
Method: as §1, with “Subsequently, they were pelleted in a 15-ml tube, rinsed twice with H2O and resuspended in 100 μl of M9. 5 μM MitoTracker Red CMXRos (Thermo Fisher Scientific, Germany) in DMSO was added to the worm suspension and incubated in this solution for 1.5 hr at room temperature in the dark.” left out, “[…].” for “a 4D hyperstack.”

C. elegans [3] = experiment: Oxygen consumption rate (OCR), Seahorse XFe96; type: in vivo; details: 100 mM H2O2 plus supplement (10 mM GA, 100 μM glycine or 500 μM L-serine)
Method: as §2, with “normalization. A small number of abnormal readings were also filtered out at this stage. On average, 7-8 wells (technical replicates) were used for each condition. Normalized OCR values were averaged for the last 3 measurements for each strain and condition. Four biological replicates were analyzed for each condition.” for “normalization.”

[4] = tested on: gox-1, ghpr-1, gcst-1, mel-32 and gcs-1 genes; experiment: Quantitative real-time PCR of glycolate pathway genes; type: in vivo, C. elegans
Method: The differential expression of F41E6.5 (gox-1), C31C9.2 (ghpr-1), gcst-1, mel-32 and gcs-1 genes was measured using qRT-PCR. ˜5000 L1 N2 worms were exposed to each condition for 3 days at 15° Cas described above and then washed three times with H2O. Total RNA was isolated using the RNeasy Mini Kit (Qiagen) and equal amounts of all samples were reverse transcribed with SuperScript Ill (Invitrogen) using oligo(dT) 12-18 primers. cDNA quality was tested using standard PCR. qRT-PCR was performed using pre-designed TaqMan Gene Expression Assay (ThermoFischer Scientific) with at least three samples in triplicates. For the relative quantification of gene expression levels, the 2^−ΔΔCT method and results were normalized to the expression level of the cdc-42 gene. Expression levels were averaged over technical and biological replicates, […]

## O=C(O)CO [GA, glycolic acid]
C. elegans [1]; GA supplementation in the absence of H2O2
  Impact on any of the parameters analyzed (FIGS. 1 and 2): does not have a significant impact
C. elegans [1]; H2O2, RNAi against mel-32 or gcst-1
  Restoration of MMP, OCR or growth rate: none of these three compounds were able to restore
C. elegans [1]; H2O2, worms fed with empty vector RNAi bacteria
  MMP, OCR, growth rate: restored parameters
C. elegans [1]; ghpr-1, gox-1, ldh-1 triple mutant, H2O2
  Glycolate-mediated protection (MMP, OCR, growth): totally abolished
C. elegans [1]; ghpr-1 deletion mutant, H2O2 treatment
  Effect of glycolate on MMP, oxygen consumption rate and developmental rate: significantly reduced effect
C. elegans [1]; single mutants of gox-1 and ldh-1 or their double mutants, H2O2
  Effect of glycolate on MMP, OCR or growth: no reduction in the effect
C. elegans [2]
  Mitochondrial membrane potential (MMP): prevented this effect
C. elegans [3]
  Respiration rate (OCR): able to restore both traits
[4]; glycolate supplementation
  Expression of gox-1, ghpr-1, mel-32 and gcs-1: moderately induced
[4]; peroxide or glycolate supplementation
  Expression of gcst-1: not significantly altered
